Experimental data from US7652047B2, “Phenylamino isothiazole carboxamidines as MEK inhibitors” (Ardea Biosciences, Inc., priority 2005, dated 2010).
Like-named read-outs stand apart in the source and are kept apart here.

Assays:
[1] = tested on: phosphorylated ERK in MDA-MB-231 breast cancer cells; test: Western blotting for phosphorylated ERK in EGF-stimulated MDA-MB-231 cells; type: cell-based; conditions: Homo sapiens, Table 4, compound 30 min, 100 ng/ml EGF 5 min
Procedure: Effects of compounds in the cell were determined by Western blotting for phosphorylated ERK. MDA-MB-231 breast cancer cells were plated in a 48 well plate at 20,000 cells per well and grown in a 37° humidified CO2 incubator. The following day, the growth media (DMEM+10% fetal bovine serum) was removed and replaced with starve media (DMEM+0.1% fetal bovine serum). Cells were incubated in the starve media for sixteen hours and then treated with a range of compound concentrations for thirty minutes. After incubation with compound, cells were stimulated with 100 ng/ml EGF for five minutes. The cells were then lysed and analyzed by Western blot using a monoclonal antibody raised to phosphorylated ERK. The signal was amplified using a secondary antibody conjugated to a near-IR dye and detected on a Licor Odyssey scanner.

[2] = molecular target: T1, MEK1^CA (human GST-MEK1, constitutively active, Ser218Asp and Ser222Asp) (Homo sapiens, UniProt Q02750, S218D/S222D); test: MEK1 enzymatic activity assay (MEK1^CA / ERK2 / MBP, [γ-33P]ATP incorporation); type: biochemical
T1 construct: GST; made in house; host or cells: Escherichia coli
T1 sequence (Q02750 whole entry S218D/S222D): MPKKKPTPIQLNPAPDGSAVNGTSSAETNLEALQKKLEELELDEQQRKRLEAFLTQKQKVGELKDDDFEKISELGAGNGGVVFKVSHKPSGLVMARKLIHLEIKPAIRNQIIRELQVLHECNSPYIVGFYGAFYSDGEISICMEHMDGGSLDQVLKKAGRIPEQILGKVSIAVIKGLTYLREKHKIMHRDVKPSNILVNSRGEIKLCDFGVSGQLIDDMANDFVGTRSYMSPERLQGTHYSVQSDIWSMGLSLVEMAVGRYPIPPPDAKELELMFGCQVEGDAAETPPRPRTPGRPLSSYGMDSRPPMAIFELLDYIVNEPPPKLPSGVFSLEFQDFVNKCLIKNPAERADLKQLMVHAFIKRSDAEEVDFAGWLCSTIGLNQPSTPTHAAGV
Summary of the method: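 Cascade assay: 25 µl reactions with 0.002 nmol E. coli-expressed GST-MEK1 S218D/S222D, 0.02 nmol His-tagged mouse ERK2, 0.25 nmol MBP, 0.25 nmol unlabeled ATP and 0.1 µCi [γ-33P]ATP. Compound preincubated 30 min at ambient temperature with MEK1/ERK2; stopped with TCA, 33P-labelled protein filter-captured and scintillation-counted.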

[3] = Table 4, R' is (CH2)1 or 2-G, read-out: IC50
[4] = Table 1, compounds of formula I, read-out: Avg IC50
[5] = Table 3, benzamides of formula X, read-out: IC 50

IC50 [2, 3]	IC50 [2, 4]	SMILES	other results
		N=C(NCCN1CCNC(=O)C1)c1c(O)nsc1Nc1ccc(Oc2cc(Cl)ccc2Cl)cc1	EC50 [1]: 1 to 100 nM
1 to 100 nM		N=C(NCCc1cnc[nH]1)c1c(O)nsc1Nc1ccc(Oc2cc(Cl)ccc2Cl)cc1	EC50 [1]: 1 to 100 nM
		N=C(NCCN1CCOCC1)c1c(O)nsc1Nc1ccc(Oc2cc(Cl)ccc2Cl)cc1	EC50 [1]: 1 to 100 nM
100 to 500 nM		CC1CN(CCNC(=N)c2c(O)nsc2Nc2ccc(Oc3cc(Cl)ccc3Cl)cc2)CC(C)O1 (stereo not drawn)	EC50 [1]: 100 to 500 nM
		CN1CCN(CCNC(=N)c2c(O)nsc2Nc2ccc(Oc3cc(Cl)ccc3Cl)cc2)CC1	EC50 [1]: 100 to 500 nM
1 to 100 nM		N=C(NCCN1CCCC1=O)c1c(O)nsc1Nc1ccc(Oc2cc(Cl)ccc2Cl)cc1	EC50 [1]: 100 to 500 nM
		N=C(NCC1CCCO1)c1c(O)nsc1Nc1ccc(Oc2cc(Cl)ccc2Cl)cc1 (stereo not drawn)	EC50 [1]: 1 to 100 nM
		N=C(NCCN1CCNCC1)c1c(O)nsc1Nc1ccc(Oc2cc(Cl)ccc2Cl)cc1	EC50 [1]: 1 to 100 nM
	1 to 100 nM	Cc1cc(Oc2cccc(F)c2F)ccc1Nc1snc(O)c1C(=N)NO [compound 500]	
	100 to 500 nM	Cc1cc(Oc2cccc(F)c2F)ccc1Nc1snc(O)c1C(=N)N(O)C(C)C [compound 501]	
	1 to 100 nM	COCC(C)NC(=N)c1c(O)nsc1Nc1ccc(Oc2cccc(F)c2F)cc1C (stereo not drawn) [compound 502]	
	100 to 500 nM	Cc1cc(Oc2cccc(F)c2F)ccc1Nc1snc(O)c1C(=N)NC(CO)C(C)C (stereo not drawn) [compound 503]	
	100 to 500 nM	CCC(CO)NC(=N)c1c(O)nsc1Nc1ccc(Oc2cccc(F)c2F)cc1C (stereo not drawn) [compound 504]	
	1 to 100 nM	COCCNC(=N)c1c(O)nsc1Nc1ccc(Oc2cccc(F)c2F)cc1C [compound 505]	
	100 to 500 nM	CC[C@@H](CO)NC(=N)c1c(O)nsc1Nc1ccc(Oc2cccc(C(F)(F)F)c2)cc1C [compound 506]	
	> 500 nM	CC(O)CNC(=N)c1c(O)nsc1Nc1ccc(Oc2ccccc2C(=O)NCC(C)O)cc1 (stereo not drawn) [compound 507]	
	> 500 nM	N=C(NCC(O)CO)c1c(O)nsc1Nc1ccc(Oc2ccccc2C(=O)NCC(O)CO)cc1 (stereo not drawn) [compound 508]	
	> 500 nM	CC(CO)NC(=N)c1c(O)nsc1Nc1ccc(-c2nc3ccccc3[nH]2)cc1 (stereo not drawn) [compound 509]	

IC50 [2, 3]	IC50 [2, 4]	SMILES	other results
	> 500 nM	CC(O)CNC(=N)c1c(O)nsc1Nc1ccc(-c2nc3ccccc3[nH]2)cc1 (stereo not drawn) [compound 510]	
	> 500 nM	N=C(NCCO)c1c(O)nsc1Nc1ccc(-c2nc3ccccc3[nH]2)cc1 [compound 511]	
	> 500 nM	N=C(NCC(O)CO)c1c(O)nsc1Nc1ccc(-c2nc3ccccc3[nH]2)cc1 (stereo not drawn) [compound 512]	
		N=C(NCCO)c1c(O)nsc1Nc1ccc(C(=O)Nc2ccccc2)cc1 [drawing 809]	IC50 [2, 5]: 100 to 500 nM
		CC(C)NC(=N)c1c(O)nsc1Nc1ccc(C(=O)Nc2ccccc2)cc1 [drawing 810]	IC50 [2, 5]: 1 to 100 nM
		N=C(NCC1CCCCC1)c1c(O)nsc1Nc1ccc(C(=O)Nc2ccccc2)cc1 [drawing 811]	IC50 [2, 5]: > 500 nM
		CC(CO)NC(=N)c1c(O)nsc1Nc1ccc(C(=O)Nc2ccccc2)cc1 (stereo not drawn) [drawing 812]	IC50 [2, 5]: 1 to 100 nM
100 to 500 nM		N=C(NCCc1ccccc1)c1c(O)nsc1Nc1ccc(Oc2ccccc2)cc1 [drawing 821]	EC50 [1]: 100 to 500 nM
1 to 100 nM		Cc1ccc(Oc2ccc(Nc3snc(O)c3C(=N)NCC3CCCCC3)cc2)cc1 [drawing 823]	
100 to 500 nM		Cc1ccc(Oc2ccc(Nc3snc(O)c3C(=N)NCC3CCCCC3)cc2)cn1 [drawing 824]	
> 500 nM		Cc1ccc(Oc2ccc(Nc3snc(O)c3C(=N)NCC3CCCCC3)cn2)cn1 [drawing 825]	
1 to 100 nM		N=C(NCC1CCCCC1)c1c(O)nsc1Nc1ccc(Sc2ccccc2)cc1 [drawing 826]	
> 500 nM		N=C(NCC1CCCCC1)c1c(O)nsc1Nc1ccc(Oc2cncnc2)cc1 [drawing 827]	
100 to 500 nM		N=C(NCC1CCCCC1)c1c(O)nsc1Nc1ccc(Oc2ccccc2)nc1 [drawing 828]	
1 to 100 nM		N=C(NCCN1CCNCC1)c1c(O)nsc1Nc1ccc(Oc2cc(F)cc(F)c2)cc1 [drawing 829]	
100 to 500 nM		N=C(NCCN1CCOCC1)c1c(O)nsc1Nc1ccc(Oc2cc(F)cc(F)c2)cc1 [drawing 830]	
100 to 500 nM		N=C(NCC1CCCCC1)c1c(O)nsc1Nc1ccc(Sc2ccc([N+](=O)[O-])cc2)cc1 [drawing 831]	
